In US9145472B2, “Charge reversible polymers” (Wyoming Research Products Center, priority 2006, dated 2015):

Assays:
[1] = pH-dependent hydrolysis of model amides monitored by 1H-NMR; format: physicochemical
Method: Model compound synthesis and hydrolytic kinetics measurement (Scheme 4—FIG. 4): Briefly, N,N-diethylamine (415 μL, 4 mmol) and 1,2-cis-cyclohexanedicarboxylic anhydride (617 mg, 4 mmol) were dissolved in 10 mL dichloride methane. The reaction was kept at room temperature for 2 h with stirring. The solvent was then removed by rotary evaporation to obtain the raw product. The raw product was purified by recrystallizing from benzene to get 2-[(diethylamino)carbonyl]cyclohexanecarboxylic acid. 1H NMR (400 MHz, CDCl3): δ (ppm): 3.60-3.22 (m), 2.77 (m), 2.51-2.45 (m), 1.87-1.66 (m), 1.58-1.46 (m), 1.49-1.39 (m), 1.28 (q), 1.17 (t). Similarly, 2-[(isopropylamino)carbonyl]cyclohexanecarboxylic acid was synthesized. 1H NMR (400 MHz, CDCl3): δ (ppm): 3.83 (q), 2.73 (q), 2.64 (q), 1.87 (m), 1.79 (m), 1.64 (m), 1.45 (m), 1.33 (m), 1.01 (d).
The hydrolysis of the model compounds was monitored by 1H-NMR. Briefly, 2-[(isopropylamino)carbonyl]cyclohexanecarboxylic acid (10 mg) was dissolved in 2 mL D2O. Sodium carbonate was used to adjust the solution pH to 5.0, 6.0 or 7.4 at 37° C. At predesigned time intervals, 1HNMR spectra of the solution were measured on a Bruker Avance DRX-400 spectrometer. The hydrolysis was monitored by measuring the integrations of the peaks at 3.77-3.9 ppm (CH in the amide of propan-2-amine) and the 3.3-3.5 ppm (CH in the propan-2-amine).
The hydrolysis of model amides of primary and secondary amines made from cis-1,2-cyclohexanedicarboxylic anhydride was tested at different pH values.

nuclear DNA = settings: cited from earlier work

| SMILES | hydrolysis of the amide ([1]; pH 5, 37° C.) | hydrolysis of the amide ([1]; pH 6, 37° C.) | extent of amide hydrolysis ([1]; pH 7.4, after 60 h) [%] | molecules that enter the cell that actually bind the nuclear DNA (nuclear DNA) | hydrolysis of the amide ([1]; pH 7.4) |
| --- | --- | --- | --- | --- | --- |
| CCN(CC)C(=O)C1CCCCC1C(=O)O (stereo not shown) [amide of the secondary amine, 2-[(diethylamino)carbonyl]cyclohexanecarboxylic acid] | almost instantly hydrolyzed | slightly slower | 50 | – | – |
| N.N.[Cl][Pt][Cl] [cisplatin] | – | – | – | less than 1% | – |
| CC(C)NC(=O)C1CCCCC1C(=O)O (stereo not shown) [amide of the primary amine, 2-[(isopropylamino)carbonyl]cyclohexanecarboxylic acid] | hydrolyzed more slowly | hydrolyzed more slowly | – | – | did not hydrolyze |
